# Test system: dyslipidemic patients with or without statin
# Assay: Example 4 pooled analysis of phase 2 and 3 studies: safety parameters
# Assay type: in vivo, human
# Details: Without Statin
# Description: The present study analyzed data combined from 6 randomized double-blind placebo-controlled studies that were conducted in Japan and continued for 12 weeks unless otherwise noted: a phase 2 study in 224 patients with a history of documented dyslipidemia and plasma TG of 200 mg/dL (2.26 mmol/L) or higher, randomized to placebo, pemafibrate 0.05, 0.1, 0.2, 0.4 mg/day, or fenofibrate 100 mg/day; a phase 3 study in 526 patients with dyslipidemia, high TG levels, and low HDL-C levels, randomized to placebo, pemafibrate 0.1, 0.2, or 0.4 mg/day, or fenofibrate 100 or 200 mg/day; a study in 188 patients with dyslipidemia, randomized to pitavastatin in combination with pemafibrate 0.1, 0.2, or 0.4 mg/day; a 24-week study in 423 patients with dyslipidemia, randomized to pemafibrate 0.2 mg/day (fixed dose) or 0.2 [0.4] mg/day (conditional up-titration) with any statin; a 24-week phase 3 study in 166 patients with type 2 diabetes and hypertriglyceridemia, randomized to placebo or pemafibrate 0.2 or 0.4 mg/day; and a study in 27 patients with hypertriglyceridemia and insulin resistance, randomized to pemafibrate 0.4 mg/day or placebo. All studies were approved by the Institutional Review Board for each study institution and were conducted in accordance with the Declaration of Helsinki and under the guidelines of Good Clinical Practice.
# In this study, we evaluated the efficacy and safety of pemafibrate at doses of 0.1 mg/day, 0.2 mg/day, and 0.4 mg/day, with and without statin. The primary efficacy endpoint was percent change in TG from baseline to 12 weeks. The secondary efficacy endpoints were also assessed from baseline to 12 weeks: percent change in HDL-C, LDL-C, non-HDL-C, TC, RemL-C, Apo AI, Apo AII, Apo B, Apo B48, Apo CII, Apo CIII, Apo CIII/Apo CII, and Apo E; percent change in HPLC findings for CM-C, VLDL-C, cholesterol content in 4 subclasses of LDL (large, medium, small, and very small LDLs), and cholesterol content for 5 subclasses of HDL (very large, large, medium, small, and very small HDLs); and changes in fibrinogen and FGF21. The primary safety endpoints were the incidence of adverse events and adverse drug reactions. Secondary safety endpoints were percentage of values above the upper limit of normal range for AST, ALT, sCr and CK, and change in sCr eGFR, CK, AST, ALT, gamma-glutamyl transferase (γ-GT), alkaline phosphatase (ALP), and total bilirubin.
# Patients with renal dysfunction were defined as those with baseline eGFR<60 mL/min/1.73 m^2. Analysis was stratified by the presence or absence of renal dysfunction in the concomitant statin group, and efficacy and safety of pemafibrate were evaluated. In efficacy and safety evaluations excluding AEs, ADRs, and cutoff values for AST, ALT, sCr, and CK, findings were combined for pemafibrate subgroups receiving doses of 0.1 mg/day, 0.2 mg/day, and 0.4 mg/day.
# For each lipid parameter, gel filtration HPLC was performed at Skylight Biotech, Inc. Other measurements were performed at LSI Medience Corporation. The FAS was used for analyzing efficacy parameters of effects on lipids, fibrinogen, and FGF21. The safety analysis set was used for safety parameters and included all patients who received at least one dose of the study drug. For lipid parameters, fibrinogen, and FGF21, LS means (95% confidence interval) were calculated at Week 12 (LOCF) using analysis of covariance (ANCOVA) with baseline values as the co-variable within each category. For safety parameters, LS means (95% confidence interval) were calculated at Week 12 using ANCOVA with baseline values as the co-variable within each category. SAS version 9.2 was used for analyses.
structure (smiles),measurement,setting,value
"CC[C@@H](Oc1cccc(CN(CCCOc2ccc(OC)cc2)c2nc3ccccc3o2)c1)C(=O)O [Pemafibrate, (2R)-2-[3-({1,3-benzoxazol-2-yl[3-(4-methoxyphenoxy)propyl]amino}methyl)phenoxy]butanoic acid]","ADE Leading to withdrawal, number of patients","0.1 mg/day, n=82",1
same,"ADE Leading to withdrawal, percentage of patients","0.1 mg/day, n=82",(1.2) percentage
same,"ADE Serious, number of patients","0.1 mg/day, n=82",0
same,"ADE Total, number of patients","0.1 mg/day, n=82",3
same,"ADE Total, percentage of patients","0.1 mg/day, n=82",(3.7) percentage
same,"AE Leading to withdrawal, number of patients","0.1 mg/day, n=82",2
same,"AE Leading to withdrawal, percentage of patients","0.1 mg/day, n=82",(2.4) percentage
same,"AE Serious, number of patients","0.1 mg/day, n=82",1
same,"AE Serious, percentage of patients","0.1 mg/day, n=82",(1.2) percentage
same,"AE Total, number of patients","0.1 mg/day, n=82",27
same,"AE Total, percentage of patients","0.1 mg/day, n=82",(32.9) percentage
same,"ALT ≥ ULN × 3, number of patients","0.1 mg/day, n=82",0
same,"AST ≥ ULN × 3, number of patients","0.1 mg/day, n=82",0
same,"CK ≥ 2.5 and < ULN × 5, number of patients","0.1 mg/day, n=82",2
same,"CK ≥ 2.5 and < ULN × 5, percentage of patients","0.1 mg/day, n=82",(2.4) percentage
same,"CK ≥ 5 and < ULN × 10, number of patients","0.1 mg/day, n=82",0
same,"CK ≥ ULN × 10, number of patients","0.1 mg/day, n=82",0
same,"sCr ≥ ULN, number of patients","0.1 mg/day, n=82",15
same,"sCr ≥ ULN, percentage of patients","0.1 mg/day, n=82",(18.3) percentage
same,"ADE Leading to withdrawal, number of patients","0.2 mg/day, n=202",2
same,"ADE Leading to withdrawal, percentage of patients","0.2 mg/day, n=202",(1.0) percentage
same,"ADE Serious, number of patients","0.2 mg/day, n=202",1
same,"ADE Serious, percentage of patients","0.2 mg/day, n=202",(0.5) percentage
same,"ADE Total, number of patients","0.2 mg/day, n=202",14
same,"ADE Total, percentage of patients","0.2 mg/day, n=202",(6.9) percentage
same,"AE Leading to withdrawal, number of patients","0.2 mg/day, n=202",3
same,"AE Leading to withdrawal, percentage of patients","0.2 mg/day, n=202",(1.5) percentage
same,"AE Serious, number of patients","0.2 mg/day, n=202",4
same,"AE Serious, percentage of patients","0.2 mg/day, n=202",(2.0) percentage
same,"AE Total, number of patients","0.2 mg/day, n=202",78
same,"AE Total, percentage of patients","0.2 mg/day, n=202",(38.6) percentage
same,"ALT ≥ ULN × 3, number of patients","0.2 mg/day, n=202",0
same,"AST ≥ ULN × 3, number of patients","0.2 mg/day, n=202",0
same,"CK ≥ 2.5 and < ULN × 5, number of patients","0.2 mg/day, n=202",3
same,"CK ≥ 2.5 and < ULN × 5, percentage of patients","0.2 mg/day, n=202",(1.5) percentage
same,"CK ≥ 5 and < ULN × 10, number of patients","0.2 mg/day, n=202",0
same,"CK ≥ ULN × 10, number of patients","0.2 mg/day, n=202",0
same,"sCr ≥ ULN, number of patients","0.2 mg/day, n=202",34
same,"sCr ≥ ULN, percentage of patients","0.2 mg/day, n=202",(16.8) percentage
same,"ALT ≥ ULN × 3, number of patients","0.4 mg/day, n=173",0
same,"AST ≥ ULN × 3, number of patients","0.4 mg/day, n=173",1
same,"AST ≥ ULN × 3, percentage of patients","0.4 mg/day, n=173",(0.6) percentage
same,"CK ≥ 2.5 and < ULN × 5, number of patients","0.4 mg/day, n=173",0
same,"CK ≥ 5 and < ULN × 10, number of patients","0.4 mg/day, n=173",1
same,"CK ≥ 5 and < ULN × 10, percentage of patients","0.4 mg/day, n=173",(0.6) percentage
same,"CK ≥ ULN × 10, number of patients","0.4 mg/day, n=173",1
same,"CK ≥ ULN × 10, percentage of patients","0.4 mg/day, n=173",(0.6) percentage
same,"sCr ≥ ULN, number of patients","0.4 mg/day, n=173",22
same,"sCr ≥ ULN, percentage of patients","0.4 mg/day, n=173",(12.7) percentage
same,"ADE Leading to withdrawal, number of patients","0.4 mg/day, n=174",3
same,"ADE Leading to withdrawal, percentage of patients","0.4 mg/day, n=174",(1.7) percentage
same,"ADE Serious, number of patients","0.4 mg/day, n=174",1
same,"ADE Serious, percentage of patients","0.4 mg/day, n=174",(0.6) percentage
same,"ADE Total, number of patients","0.4 mg/day, n=174",16
same,"ADE Total, percentage of patients","0.4 mg/day, n=174",(9.2) percentage
same,"AE Leading to withdrawal, number of patients","0.4 mg/day, n=174",6
same,"AE Leading to withdrawal, percentage of patients","0.4 mg/day, n=174",(3.4) percentage
same,"AE Serious, number of patients","0.4 mg/day, n=174",2
same,"AE Serious, percentage of patients","0.4 mg/day, n=174",(1.1) percentage
same,"AE Total, number of patients","0.4 mg/day, n=174",60
same,"AE Total, percentage of patients","0.4 mg/day, n=174",(34.5) percentage
